Test results as given in ChEMBL document CHEMBL1144087, “Triterpenoid saponins from Ilex kudincha” (J Nat Prod, 1999).
Active and inactive are the calls of the source. The calls are words filed in the database; no cut-off is given here.

Tests used:
[1] = target: T1, Sterol O-acyltransferase 1 (Homo sapiens) (UniProt P35610); assay: Inhibition of ACAT at 1 mg/mL
T1 sequence (whole entry): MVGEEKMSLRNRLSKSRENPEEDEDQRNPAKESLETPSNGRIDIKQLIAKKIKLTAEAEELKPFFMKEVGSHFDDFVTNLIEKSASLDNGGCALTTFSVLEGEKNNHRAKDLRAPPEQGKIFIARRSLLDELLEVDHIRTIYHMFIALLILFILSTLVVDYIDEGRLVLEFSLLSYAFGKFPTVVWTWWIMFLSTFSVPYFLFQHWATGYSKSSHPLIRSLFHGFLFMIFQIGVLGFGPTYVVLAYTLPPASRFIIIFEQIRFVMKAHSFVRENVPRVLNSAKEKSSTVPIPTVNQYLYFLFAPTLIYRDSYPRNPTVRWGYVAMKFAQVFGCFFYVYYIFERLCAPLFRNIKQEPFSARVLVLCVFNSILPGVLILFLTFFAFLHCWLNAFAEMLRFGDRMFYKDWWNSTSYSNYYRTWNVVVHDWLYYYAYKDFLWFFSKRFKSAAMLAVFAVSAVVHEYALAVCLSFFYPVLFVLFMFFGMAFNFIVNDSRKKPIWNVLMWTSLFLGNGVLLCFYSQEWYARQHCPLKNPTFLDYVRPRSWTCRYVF

[2] = target: T1, Sterol O-acyltransferase 1 (Homo sapiens); assay: Inhibition of ACAT at 0.2 mg/mL
[3] = target: T1, Sterol O-acyltransferase 1 (Homo sapiens); assay: Inhibition of ACAT at 0.05 mg/mL

Row | Compound | inhibition [1] | Activity [2] | inhibition [3] | Activity [3] | Activity [1] | inhibition [2]
1 | C[C@H]1[C@H](C)CC[C@]2(C(=O)O[C@@H]3O[C@H](CO)[C@@H](O)[C@H](O)[C@H]3O)CC[C@]3(C)C(=CC[C@@H]4[C@@]5(C)C[C@@H](O)[C@H](O[C@@H]6OC[C@H](O)[C@H](O)[C@H]6O)[C@@](C)(CO)[C@@H]5CC[C@]43C)[C@H]12 | 35.5% | inactive | – | inactive | – | –
2 | C[C@H]1[C@H](C)CC[C@]2(C(=O)O[C@@H]3O[C@H](CO)[C@@H](O)[C@H](O)[C@H]3O)CC[C@]3(C)C(=CC[C@@H]4[C@@]5(C)CC[C@H](O[C@H]6O[C@@H](C(=O)O)[C@H](O)[C@@H](O)[C@@H]6O)[C@@](C)(CO)[C@@H]5CC[C@]43C)[C@H]12 | 63.9% | – | – | – | – | 29%
3 | C[C@@H]1CC[C@]2(C(=O)O[C@@H]3O[C@H](CO)[C@@H](O)[C@H](O)[C@H]3O)CC[C@]3(C)C(=CC[C@@H]4[C@@]5(C)CC[C@H](O[C@@H]6OC[C@H](O)[C@H](O)[C@H]6O)[C@@](C)(CO)[C@@H]5CC[C@]43C)[C@@H]2[C@]1(C)O | 18.9% | inactive | – | inactive | – | –
4 | C[C@@H]1O[C@@H](O[C@H]2[C@H](O[C@H]3CC[C@]4(C)[C@H]5CC=C6[C@H]7[C@](C(=O)O[C@@H]8O[C@H](CO)[C@@H](O)[C@H](O)[C@H]8O)(CC[C@@H](C)[C@@]7(C)O)CC[C@@]6(C)[C@]5(C)CC[C@H]4C3(C)C)OC[C@H](O)[C@@H]2O)[C@H](O)[C@H](O)[C@H]1O | 72.8% | inactive | – | inactive | – | –
5 | C=C1CC[C@]2(C(=O)O[C@@H]3O[C@H](CO)[C@@H](O)[C@H](O)[C@H]3O[C@@H]3O[C@@H](C)[C@H](O)[C@@H](O)[C@H]3O)CC[C@]3(C)C(=CC[C@@H]4[C@@]5(C)CC[C@H](O[C@@H]6OC[C@H](O)[C@H](O[C@@H]7O[C@H](CO)[C@@H](O)[C@H](O)[C@H]7O[C@@H]7O[C@H](CO)[C@@H](O)[C@H](O)[C@H]7O)[C@H]6O[C@@H]6O[C@@H](C)[C@H](O)[C@@H](O)[C@H]6O)C(C)(C)[C@@H]5CC[C@]43C)[C@@H]2[C@]1(C)O | 60% | inactive | – | – | – | –
6 | C[C@@H]1CC[C@]2(C(=O)O[C@@H]3O[C@H](CO)[C@@H](O)[C@H](O)[C@H]3O)CC[C@]3(C)C(=CC[C@@H]4[C@@]5(C)CC[C@H](O[C@H]6O[C@@H](C(=O)O)[C@H](O)[C@@H](O)[C@@H]6O)C(C)(C)[C@@H]5CC[C@]43C)[C@@H]2[C@]1(C)O | 12.5% | inactive | – | – | – | –
7 | CC1(C)[C@@H](O[C@@H]2OC[C@H](O)[C@H](O)[C@H]2O[C@@H]2O[C@H](CO)[C@@H](O)[C@H](O)[C@H]2O)CC[C@]2(C)[C@H]3C[C@@H](O)C4=C5[C@]6(CC[C@](C)(OC6=O)[C@@]5(C)O)CC[C@@]4(C)[C@]3(C)CC[C@@H]12 | 24.1% | inactive | – | – | – | –
8 | CC1(C)CC[C@]2(C(=O)O[C@@H]3O[C@H](CO)[C@@H](O)[C@H](O)[C@H]3O)CC[C@]3(C)C(=CC[C@@H]4[C@@]5(C)CC[C@H](O[C@H]6O[C@@H](C(=O)O)[C@H](O)[C@@H](O)[C@@H]6O)[C@@](C)(CO)[C@@H]5CC[C@]43C)[C@@H]2C1 | 64.3% | – | 15.7% | – | – | 36.5%
9 | CC1(C)[C@@H](O[C@@H]2O[C@H](CO)[C@@H](O)[C@H](O)[C@H]2O[C@@H]2O[C@H](CO)[C@@H](O)[C@H](O)[C@H]2O)CC[C@]2(C)[C@H]3C[C@@H](O)C4=C5[C@]6(CC[C@](C)(OC6=O)[C@@]5(C)O)CC[C@@]4(C)[C@]3(C)CC[C@@H]12 | 43% | inactive | – | inactive | – | –

The next lines start with the values.

Row | inhibition [1] | Activity [2] | inhibition [3] | Activity [3] | Activity [1] | inhibition [2] | Compound
10 | 25.4% | inactive | 31.7% | – | – | – | C[C@@H]1O[C@@H](O[C@H]2[C@H](O[C@H]3CC[C@]4(C)[C@H]5CC=C6[C@@H]7CC(C)(C)CC[C@]7(C(=O)O[C@@H]7O[C@H](CO)[C@@H](O)[C@H](O)[C@H]7O)CC[C@@]6(C)[C@]5(C)CC[C@H]4C3(C)C)OC[C@H](O)[C@@H]2O[C@@H]2O[C@H](CO)[C@@H](O)[C@H](O)[C@H]2O)[C@H](O)[C@H](O)[C@H]1O
11 | – | inactive | – | – | inactive | – | C[C@@H]1CC[C@]2(C(=O)O[C@@H]3O[C@H](CO)[C@@H](O)[C@H](O)[C@H]3O)CC[C@]3(C)C(=CC[C@@H]4[C@@]5(C)CC[C@H](O[C@@H]6OC[C@H](O)[C@H](O[C@@H]7O[C@H](CO)[C@@H](O)[C@H](O)[C@H]7O)[C@H]6O)C(C)(C)[C@@H]5CC[C@]43C)[C@@H]2[C@]1(C)O
12 | – | inactive | – | inactive | inactive | – | C[C@@H]1O[C@@H](O[C@H]2[C@H](O[C@H]3CC[C@]4(C)[C@H]5[C@@H](O)CC6=C7[C@]8(CC[C@](C)(OC8=O)[C@@]7(C)O)CC[C@@]6(C)[C@]5(C)CC[C@H]4C3(C)C)OC[C@H](O)[C@@H]2O[C@@H]2O[C@H](CO)[C@@H](O)[C@H](O)[C@H]2O[C@@H]2O[C@H](CO)[C@@H](O)[C@H](O)[C@H]2O)[C@H](O)[C@H](O)[C@H]1O
13 | – | inactive | – | inactive | inactive | – | C[C@@H]1O[C@@H](O[C@H]2[C@H](O[C@H]3CC[C@]4(C)[C@H]5CC=C6[C@H]7[C@]8(CC[C@](C)(OC8=O)[C@@]7(C)O)CC[C@@]6(C)[C@]5(C)CC[C@H]4C3(C)C)OC[C@H](O)[C@@H]2O[C@@H]2O[C@H](CO)[C@@H](O)[C@H](O)[C@H]2O[C@@H]2O[C@H](CO)[C@@H](O)[C@H](O)[C@H]2O)[C@H](O)[C@H](O)[C@H]1O
14 | 20% | inactive | – | inactive | – | – | C[C@@H]1O[C@@H](O[C@H]2[C@H](O[C@H]3CC[C@]4(C)[C@H]5CC=C6[C@@H]7[C@H](O)C(C)(C)CC[C@]7(C(=O)O[C@@H]7O[C@H](CO)[C@@H](O)[C@H](O)[C@H]7O)CC[C@@]6(C)[C@]5(C)CC[C@H]4C3(C)C)OC[C@H](O)[C@@H]2O[C@@H]2O[C@H](CO)[C@@H](O)[C@H](O)[C@H]2O)[C@H](O)[C@H](O)[C@H]1O
15 | 31.8% | – | 10.9% | – | – | 10.3% | C[C@@H]1O[C@@H](O[C@H]2[C@H](O[C@H]3CC[C@]4(C)[C@H]5CC=C6[C@H]7[C@](C(=O)O[C@@H]8O[C@H](CO)[C@@H](O)[C@H](O)[C@H]8O)(CC[C@@H](C)[C@@]7(C)O)CC[C@@]6(C)[C@]5(C)CC[C@H]4C3(C)C)OC[C@H](O)[C@@H]2O[C@@H]2O[C@H](CO)[C@@H](O)[C@H](O)[C@H]2O)[C@H](O)[C@H](O)[C@H]1O
16 | – | – | – | inactive | inactive | 10.6% | C[C@@H]1O[C@@H](O[C@H]2[C@H](OC(=O)[C@]34CC[C@@H](C)[C@@](C)(O)[C@H]3C3=CC[C@@H]5[C@@]6(C)CC[C@H](O[C@@H]7OC[C@H](O)[C@H](O[C@@H]8O[C@H](CO)[C@@H](O)[C@H](O)[C@H]8O)[C@H]7O[C@@H]7O[C@@H](C)[C@H](O)[C@@H](O)[C@H]7O)C(C)(C)[C@@H]6CC[C@@]5(C)[C@]3(C)CC4)O[C@H](CO)[C@@H](O)[C@@H]2O)[C@H](O)[C@H](O)[C@H]1O
17 | – | inactive | – | inactive | inactive | – | C[C@@H]1O[C@@H](O[C@H]2[C@H](OC(=O)[C@]34CCC(C)(C)[C@@H](O)[C@H]3C3=CC[C@@H]5[C@@]6(C)CC[C@H](O[C@@H]7OC[C@H](O)[C@H](O[C@@H]8O[C@H](CO)[C@@H](O)[C@H](O)[C@H]8O)[C@H]7O[C@@H]7O[C@@H](C)[C@H](O)[C@@H](O)[C@H]7O)C(C)(C)[C@@H]6CC[C@@]5(C)[C@]3(C)CC4)O[C@H](CO)[C@@H](O)[C@@H]2O)[C@H](O)[C@H](O)[C@H]1O
